14 molecules from US9012642B2, “Pyrrolopyridinone compounds and methods for treating HIV” (ViiV Healthcare UK Limited, priority 2011, dated 2015) can be followed below.

Like-named read-outs stand apart in the source and are kept apart here.

This experiment relates to HIV. The experiment is described as follows: HIV MT4 Assay (antiviral HIV activity in MT-4 cells). It is filed as cell-based. Summed up: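 HTLV-1-transformed MT-4 cells were used to measure HIV inhibition and cytotoxicity in parallel, with cell titer glo read after 96 h. Percent inhibition was taken relative to no-compound control. IC50s came from a 10-point, 3–4-fold dilution series fitted by a four-parameter logistic equation.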

Where [1] appears, read: Human immunodeficiency virus 1, MT4, HTLV-1 transformed cell line MT-4, luciferase activity measured 96 hours later, Table 3, read-out: HIV MT4 Assay IC50.
Where [2] appears, read: MT4, 96 h, read-out: MT4 (IC50).

One may read the IC50 as the concentration at which inhibition is half-maximal. As for `Cc1c(-c2c(C(OC(C)(C)C)C(=O)O)n(C)c(=O)c3c2ccn3CC2CCOCC2)ccc2c1CCCO2` (stereo not shown) [Example 52, 2-(tert-butoxy)-2-(6-methyl-4-(5-methylchroman-6-yl)-7-oxo-1-((tetrahydro-2H-pyran-4-yl)methyl)-6,7-dihydro-1H-pyrrolo[2,3-c]pyridin-5-yl)acetic acid], the 50% inhibitory concentration (IC50) reads like this: under setting [1], 350 nM; under setting [2], 350 nM.
As for `Cc1c(-c2c(C(OC(C)(C)C)C(=O)O)n(C)c(=O)c3sc4c(c23)CCCC4)ccc2c1CCCO2` (stereo not shown) [Example 55, tert-Butoxy-[2-methyl-4-(5-methyl-chroman-6-yl)-1-oxo-1,2,5,6,7,8-hexahydro-benzo[4,5]thieno[2,3-c]pyridin-3-yl]-acetic acid], the IC50 is 130 nM under setting [1] and 130 nM under setting [2].
For the molecule `Cc1ccc(-c2c(C(OC(C)(C)C)C(=O)O)n(C)c(=O)c3c2c2ccccc2n3Cc2ccc(F)cc2)cc1` (stereo not shown) [Example 56, 2-(tert-butoxy)-2-(9-(4-fluorobenzyl)-2-methyl-1-oxo-4-(p-tolyl)-2,9-dihydro-1H-pyrido[3,4-b]indol-3-yl)acetic acid], the IC50 by setting is: under setting [1], 740 nM; under setting [2], 740 nM.
As to `Cc1ccc(-c2c(C(OC(C)(C)C)C(=O)O)n(C)c(=O)c3c2c2ccccc2n3C)cc1` (stereo not shown) [Example 57, 2-(tert-butoxy)-2-(2,9-dimethyl-1-oxo-4-(p-tolyl)-2,9-dihydro-1H-pyrido[3,4-b]indol-3-yl)acetic acid], the IC50 is, setting by setting: under setting [1], 80 nM; under setting [2], 80 nM.
`Cc1ccc(-c2c(C(OC(C)(C)C)C(=O)O)n(C)c(=O)c3c2c2c(n3Cc3ccc(F)cc3)CCOC2)cc1` (stereo not shown) [Example 58, 2-(tert-butoxy)-2-(5-(4-fluorobenzyl)-7-methyl-6-oxo-9-(p-tolyl)-1,3,4,5,6,7-hexahydropyrano[3′,4′:4,5]pyrrolo[2,3-c]pyridin-8-yl)acetic acid]: the IC50 under setting [1] was determined as 750 nM and the IC50 under setting [2] is 750 nM.
On to `Cc1ccc(-c2c(C(OC(C)(C)C)C(=O)O)n(C)c(=O)c3c2c2c(n3Cc3ccc(F)cc3)CCCC2)cc1` (stereo not shown) [Example 59, 2-(tert-butoxy)-2-(9-(4-fluorobenzyl)-2-methyl-1-oxo-4-(p-tolyl)-2,5,6,7,8,9-hexahydro-1H-pyrido[3,4-b]indol-3-yl)acetic acid], for which the half-inhibitory concentration (IC50) runs as follows: under setting [1], 280 nM; under setting [2], 280 nM.
For `Cc1ccc(-c2c(C(OC(C)(C)C)C(=O)O)n(C)c(=O)c3c2c2c(n3C)CCCC2)cc1` (stereo not shown) [Example 60, 2-(tert-butoxy)-2-(2,9-dimethyl-1-oxo-4-(p-tolyl)-2,5,6,7,8,9-hexahydro-1H-pyrido[3,4-b]indol-3-yl)acetic acid], the IC50 was found to be 50 nM under setting [1] and 50 nM under setting [2].
For `COc1ccc(Cn2c3c(c4c(-c5ccc(C)cc5)c(C(OC(C)(C)C)C(=O)O)n(C)c(=O)c42)CCCC3)cc1` (stereo not shown) [Example 61, 2-(tert-butoxy)-2-(9-(4-methoxybenzyl)-2-methyl-1-oxo-4-(p-tolyl)-2,5,6,7,8,9-hexahydro-1H-pyrido[3,4-b]indol-3-yl)acetic acid], the IC50 stood at 100 nM under setting [1] and 100 nM under setting [2].
Consider `COc1ccc(Cn2c3c(c4c(-c5ccc6c(c5C)CCCO6)c(C(OC(C)(C)C)C(=O)O)n(C)c(=O)c42)CCCC3)cc1` (stereo not shown) [Example 62, 2-(tert-butoxy)-2-(9-(4-methoxybenzyl)-2-methyl-4-(5-methylchroman-6-yl)-1-oxo-2,5,6,7,8,9-hexahydro-1H-pyrido[3,4-b]indol-3-yl)acetic acid], for which the IC50 was 50 nM under setting [1] and 50 nM under setting [2].
On to `COc1ccc(Cn2ncc3c(-c4ccc(C)c(C)c4)c(C(OC(C)(C)C)C(=O)O)n(C)c(=O)c32)cc1` (stereo not shown) [Example 63, 2-(tert-Butoxy)-2-(4-(3,4-dimethylphenyl)-1-(4-methoxybenzyl)-6-methyl-7-oxo-6,7-dihydro-1H-pyrazolo[3,4-c]pyridin-5-yl)acetic acid], for which the IC50 by setting is: under setting [1], 1200 nM; under setting [2], 1200 nM.
As to `Cc1ccc(-c2c(C(OC(C)(C)C)C(=O)O)n(C)c(=O)c3c2cnn3Cc2ccc(F)cc2)cc1` (stereo not shown) [Example 64, 2-(tert-Butoxy)-2-(1-(4-fluorobenzyl)-6-methyl-7-oxo-4-(p-tolyl)-6,7-dihydro-1H-pyrazolo[3,4-c]pyridin-5-yl)acetic acid], the IC50 came out at 180 nM under setting [1] and 180 nM under setting [2].
Turning to `COc1ccc(Cn2ncc3c(-c4ccc5c(c4C)CCCO5)c(C(OC(C)(C)C)C(=O)O)n(C)c(=O)c32)cc1` (stereo not shown) [Example 65], the IC50 runs as follows: under setting [1], 410 nM; under setting [2], 410 nM.
In the case of `Cc1c(-c2c(C(OC(C)(C)C)C(=O)O)n(C)c(=O)c3c2cnn3Cc2ccccn2)ccc2c1CCCO2` (stereo not shown) [Example 66, 2-(tert-Butoxy)-2-(6-methyl-4-(5-methylchroman-6-yl)-7-oxo-1-(pyridin-2-ylmethyl)-6,7-dihydro-1H-pyrazolo[3,4-c]pyridin-5-yl)acetic acid], the IC50 reads like this: under setting [1], 1360 nM; under setting [2], 1360 nM.
`Cc1c(-c2c(C(OC(C)(C)C)C(=O)O)n(C)c(=O)c3c2cnn3Cc2ccc(F)cc2)ccc2c1CCCO2` (stereo not shown) [Example 67, 2-(tert-butoxy)-2-(1-(4-fluorobenzyl)-6-methyl-4-(5-methylchroman-6-yl)-7-oxo-6,7-dihydro-1H-pyrazolo[3,4-c]pyridin-5-yl)acetic acid]: the IC50 came to 80 nM under setting [1] and 80 nM under setting [2].
